Species on record: Rattus norvegicus
Assay: DrugMatrix - Regimen: Daily Repeat
Format: toxicity, organism-based, Sprague-Dawley
Parameters: regimen Daily Repeat, gender Male, age 6-8 weeks
Conditions: in vivo, po, 75 mg/kg, route oral GAVAGE, dose level High, […]; for ABSOLUTE BASOPHIL / ABSOLUTE EOSINOPHIL / ABSOLUTE LYMPHOCYTE / ABSOLUTE MONOCYTE / ABSOLUTE SEGMENTED NEUTROPHIL / BASOPHIL / EOSINOPHIL / ERYTHROCYTE COUNT / HEMATOCRIT / HEMOGLOBIN / LEUKOCYTE COUNT / LYMPHOCYTE / MEAN CORPUSCULAR HEMOGLOBIN / MEAN CORPUSCULAR HEMOGLOBIN CONCENTRATION / MEAN CORPUSCULAR VOLUME / MONOCYTE / NEUTROPHIL / NUCLEATED RED BLOOD CELLS / PLATELET COUNT: tissue Blood; for ALANINE AMINOTRANSFERASE / ALBUMIN / ALKALINE PHOSPHATASE / ASPARTATE AMINOTRANSFERASE / BLOOD UREA NITROGEN / CARBON DIOXIDE / CHLORIDE / CHOLESTEROL / CREATINE PHOSPHOKINASE / CREATININE / GLUCOSE / LACTATE DEHYDROGENASE / LIPASE / PHOSPHORUS / POTASSIUM / SODIUM / TOTAL BILIRUBIN / TOTAL PROTEIN / URIC ACID: tissue Plasma

C[C@@H]1CC[C@@]2(OC1)O[C@H]1[C@@H](O)[C@H]3[C@@H]4CC[C@H]5C[C@@H](O[C@@H]6O[C@H](CO)[C@H](O[C@@H]7O[C@H](CO)C(O)[C@H](O[C@@H]8OC[C@@H](O)[C@H](O)[C@H]8O)[C@H]7O[C@@H]7O[C@H](CO)[C@H](O)[C@H](O[C@@H]8O[C@H](CO)[C@@H](O)[C@H](O)[C@H]8O)[C@H]7O)[C@H](O)[C@H]6O)[C@H](O)C[C@]5(C)[C@H]4CC[C@]3(C)[C@H]1[C@@H]2C (stereo partly specified) [DIGITONIN]
ABSOLUTE BASOPHIL (72 h, time 3 day): 0 CELLS/uL
ABSOLUTE EOSINOPHIL (72 h, time 3 day): 39.67 CELLS/uL
ABSOLUTE LYMPHOCYTE (72 h, time 3 day): 12631.67 CELLS/uL
ABSOLUTE MONOCYTE (72 h, time 3 day): 0 CELLS/uL
ABSOLUTE SEGMENTED NEUTROPHIL (72 h, time 3 day): 1028.67 CELLS/uL
BASOPHIL (72 h, time 3 day): 0%
EOSINOPHIL (72 h, time 3 day): 0.33%
ERYTHROCYTE COUNT (72 h, time 3 day): 5.46 x10E6/uL
HEMATOCRIT (72 h, time 3 day): 34.9%
HEMOGLOBIN (72 h, time 3 day): 13.03 G/DL
LEUKOCYTE COUNT (72 h, time 3 day): 13.7 x10E3/uL
LYMPHOCYTE (72 h, time 3 day): 92.33%
MEAN CORPUSCULAR HEMOGLOBIN (72 h, time 3 day): 23.83 pg
MEAN CORPUSCULAR HEMOGLOBIN CONCENTRATION (72 h, time 3 day): 37.37 G/DL
MEAN CORPUSCULAR VOLUME (72 h, time 3 day): 63.8 fL
MONOCYTE (72 h, time 3 day): 0%
NEUTROPHIL (72 h, time 3 day): 7.33%
NUCLEATED RED BLOOD CELLS (72 h, time 3 day): 0 /100WBC
PLATELET COUNT (72 h, time 3 day): 1082.67 x10E3/uL
ALANINE AMINOTRANSFERASE (72 h, time 3 day): 64 u/L
ALBUMIN (72 h, time 3 day): 4.23 G/DL
ALKALINE PHOSPHATASE (72 h, time 3 day): 395.33 u/L
ASPARTATE AMINOTRANSFERASE (72 h, time 3 day): 86.33 u/L
BLOOD UREA NITROGEN (72 h, time 3 day): 16.67 mg/dL
CARBON DIOXIDE (72 h, time 3 day): 25.33 mmol/L
CHLORIDE (72 h, time 3 day): 102 MEQ/L
CHOLESTEROL (72 h, time 3 day): 78 mg/dL
CREATINE PHOSPHOKINASE (72 h, time 3 day): 233.67 u/L
CREATININE (72 h, time 3 day): 0.17 mg/dL
GLUCOSE (72 h, time 3 day): 178.33 mg/dL
LACTATE DEHYDROGENASE (72 h, time 3 day): 118.33 u/L
LIPASE (72 h, time 3 day): 9 u/L
PHOSPHORUS (72 h, time 3 day): 13.13 mg/dL
POTASSIUM (72 h, time 3 day): 6.32 MEQ/L
SODIUM (72 h, time 3 day): 144.17 MEQ/L
TOTAL BILIRUBIN (72 h, time 3 day): 0.23 mg/dL
TOTAL PROTEIN (72 h, time 3 day): 5.93 G/DL
URIC ACID (72 h, time 3 day): 2.1 mg/dL
ABSOLUTE BASOPHIL (120 h, time 5 day): 0 CELLS/uL
ABSOLUTE EOSINOPHIL (120 h, time 5 day): 43.33 CELLS/uL
ABSOLUTE LYMPHOCYTE (120 h, time 5 day): 6877 CELLS/uL
ABSOLUTE MONOCYTE (120 h, time 5 day): 37 CELLS/uL
ABSOLUTE SEGMENTED NEUTROPHIL (120 h, time 5 day): 776 CELLS/uL
BASOPHIL (120 h, time 5 day): 0%
EOSINOPHIL (120 h, time 5 day): 0.67%
ERYTHROCYTE COUNT (120 h, time 5 day): 5.49 x10E6/uL
HEMATOCRIT (120 h, time 5 day): 35.43%
HEMOGLOBIN (120 h, time 5 day): 13.27 G/DL
LEUKOCYTE COUNT (120 h, time 5 day): 7.73 x10E3/uL
LYMPHOCYTE (120 h, time 5 day): 89.33%
MEAN CORPUSCULAR HEMOGLOBIN (120 h, time 5 day): 24.17 pg
MEAN CORPUSCULAR HEMOGLOBIN CONCENTRATION (120 h, time 5 day): 37.47 G/DL
MEAN CORPUSCULAR VOLUME (120 h, time 5 day): 64.5 fL
MONOCYTE (120 h, time 5 day): 0.33%
NEUTROPHIL (120 h, time 5 day): 9.67%
NUCLEATED RED BLOOD CELLS (120 h, time 5 day): 0 /100WBC
PLATELET COUNT (120 h, time 5 day): 1285 x10E3/uL
ALANINE AMINOTRANSFERASE (120 h, time 5 day): 65.67 u/L
ALBUMIN (120 h, time 5 day): 4.4 G/DL
ALKALINE PHOSPHATASE (120 h, time 5 day): 444.33 u/L
ASPARTATE AMINOTRANSFERASE (120 h, time 5 day): 85.67 u/L
BLOOD UREA NITROGEN (120 h, time 5 day): 15.67 mg/dL
CARBON DIOXIDE (120 h, time 5 day): 24 mmol/L
CHLORIDE (120 h, time 5 day): 100 MEQ/L
CHOLESTEROL (120 h, time 5 day): 62 mg/dL
CREATINE PHOSPHOKINASE (120 h, time 5 day): 202.67 u/L
CREATININE (120 h, time 5 day): 0.15 mg/dL
GLUCOSE (120 h, time 5 day): 146.67 mg/dL
LACTATE DEHYDROGENASE (120 h, time 5 day): 137.67 u/L
LIPASE (120 h, time 5 day): 8.33 u/L
PHOSPHORUS (120 h, time 5 day): 10.97 mg/dL
POTASSIUM (120 h, time 5 day): 5.88 MEQ/L
SODIUM (120 h, time 5 day): 147.6 MEQ/L
TOTAL BILIRUBIN (120 h, time 5 day): 0.23 mg/dL
TOTAL PROTEIN (120 h, time 5 day): 6 G/DL
URIC ACID (120 h, time 5 day): 0.83 mg/dL
